Literature values, collected in patent US11395831B2, “Combination products of tobramycin compounds and dexameihasone compounds” (Somerset Therapeutics, LLC, priority 2020, dated 2022).
Values after ≈ are worked out from the molar mass of the structure shown.

- solubility in water: 94 mg/mL (≈ 201 mM)
Structure (SMILES): NC[C@H]1O[C@H](O[C@H]2[C@H](O)[C@@H](O[C@H]3O[C@H](CO)[C@@H](O)[C@H](N)[C@H]3O)[C@H](N)C[C@@H]2N)[C@H](N)C[C@@H]1O [tobramycin, 0-{3-amino-3-deoxy-α-D-gluco-pyranosyl-(1→4)}-0-{2,6-diamino-2,3,6-trideoxy-α-D-ribohexo-pyranosyl-(1→6)}-2-deoxystreptamine]
